Test results: article PMC6199744, “Development of Chemical Proteomics for the Folateome and Analysis of the Kinetoplastid Folateome” (ACS Infectious Diseases, 2018)

System: L. major lysate proteins
Assay: Multitargeted bead mixture chemoproteomics, single concentration competition, proteome-wide
Format: binding
Settings: for fold change: vehicle control = 1

`NCCCNc1ccc(C(=O)NC(CCC(=O)O)C(=O)O)cc1` (stereo not drawn) [compound 7] was tested, and the fold change (protein LMJF.15.0040 HYPOTHETICAL PROTEIN, CONSERVED (Possible lysine decarboxylase, putative)) was 0.73, the “fold change vs vehicle control” value (protein LMJF.15.0690 HY[…], CONSERVED) was 1.02 and the fold change (protein LMJF.15.1010 GLUTAMATE DEHYDROGENASE) was 1.04. The fold change (protein LMJF.15.1190 HY[…], CONSERVED (cyclic nucleotide-binding domain containing protein, putative)) was 1.08, the “fold change vs vehicle control” value (protein LMJF.16.0520 HY[…], CONSERVED) was 1.02 and the “fold change vs vehicle control” value (protein LMJF.16.0540 ASPARTATE CARBAMOYLTRANSFERASE, PUTATIVE) was 0.99. For the same compound, the “fold change relative to vehicle control” value (protein LMJF.16.0760, TRANSALDOLASE, PUTATIVE) was 0.99, the “fold change vs vehicle control” value (protein LMJF.16.0940 DYNEIN LIGHT CHAIN, PUTATIVE) was 1.11 and the “fold change relative to vehicle control” value (protein LMJF.16.1180, COATOMER DELTA SUBUNIT-LIKE PROTEIN) was 1.2. For the same compound, the “fold change relative to vehicle control” value (protein LMJF.16.1320, […], PUTATIVE) was 1.34, the “fold change relative to vehicle control” value (protein LMJF.16.1420, HY[…], CONSERVED) was 1.05 and the “fold change relative to vehicle control” value (protein LMJF.17.0081, […] 1-ALPHA) was 1.09. For the same compound, the “fold change relative to vehicle control” value (protein LMJF.18.0270, GLYCOGEN SYNTHASE KINASE, PUTATIVE) was 0.98, the fold change (protein LMJF.18.0580 P[…]-COA HYDRATASE, PUTATIVE) was 1.04 and the “fold change relative to vehicle control” value (protein LMJF.18.0680, CITRATE SYNTHASE, PUTATIVE) was 1.06. For the same compound, the “fold change vs vehicle control” value (protein LMJF.18.1010 DYNEIN LIGHT CHAIN 2B, CYTOPLASMIC, PUTATIVE) was 1.15, the “fold change vs vehicle control” value (protein LMJF.18.1210 PROLYL-TRNA SYNTHETASE, PUTATIVE,BI[…]-TRNA SYNTHETASE, PUTATIVE) was 1.03 and the “fold change vs vehicle control” value (protein LMJF.18.1370 HEAT SHOCK PROTEIN, PUTATIVE) was 1.14. For the same compound, the fold change (protein LMJF.19.0200 ADP,ATP CARRIER PROTEIN 1, MIT[…], PUTATIVE) was 1.08, the “fold change vs vehicle control” value (protein LMJF.19.1120 […]-ATP-ASE SUBUNIT, PUTATIVE) was 1.07 and the “fold change vs vehicle control” value (protein LMJF.19.1160 HYPOTHETICAL PROTEIN, CONSERVED) was 0.99. For the same compound, the “fold change vs vehicle control” value (protein LMJF.19.1560 INOSINE-5'-MONOPHOSPHATE DEHYDROGENASE) was 0.97, the “fold change relative to vehicle control” value (protein LMJF.19.1620, POTASSIUM VOLTAGE-GATED CHANNEL, PUTATIVE) was 1.12 and the “fold change vs vehicle control” value (protein LMJF.20.1280 SMALL MYRISTOYLATED PROTEIN 4, PUTATIVE) was 0.92. For the same compound, the fold change (protein LMJF.21.0810 METHIONYL-TRNA SYNTHETASE, PUTATIVE) was 0.87, the fold change (protein LMJF.21.1450 ARGININE N-METHYLTRANSFERASE, TYPE II, PUTATIVE) was 1.06 and the “fold change vs vehicle control” value (protein LMJF.21.1830 […] 5 SUBUNIT, PUTATIVE,20S […] ALPHA 5, (PUTATIVE)) was 1.01. For the same compound, the fold change (protein LMJF.22.0230 AMINO ACID PERMEASE, PUTATIVE) was 1.14, the “fold change vs vehicle control” value (protein LMJF.22.0570 […] SUBUNIT 1, PUTATIVE) was 1.04 and the “fold change vs vehicle control” value (protein LMJF.22.0730 HYPOTHETICAL PROTEIN, CONSERVED) was 0.96. The fold change (protein LMJF.22.0770 NADH-CYTOCHROME B5 REDUCTASE, PUTATIVE) was 0.85, the “fold change relative to vehicle control” value (protein LMJF.23.0020, HYPOTHETICAL PROTEIN, CONSERVED) was 1.99 and the “fold change relative to vehicle control” value (protein LMJF.23.0040, PEROXIDOXIN) was 0.99. The “fold change relative to vehicle control” value (protein LMJF.23.0080, HYPOTHETICAL PROTEIN, CONSERVED) was 0.99, the fold change (protein LMJF.23.0210 ATP-BINDING CASSETTE PROTEIN SUBFAMILY C, MEMBER 1, PUTATIVE) was 1.03 and the fold change (protein LMJF.23.0370 CYTOCHROME C OXIDASE SUBUNIT 10, PUTATIVE) was 0.97. The “fold change relative to vehicle control” value (protein LMJF.23.0540, ACETYL-COA SYNTHETASE, PUTATIVE) was 1.01, the “fold change vs vehicle control” value (protein LMJF.23.0560 KINESIN, PUTATIVE) was 0.91 and the “fold change vs vehicle control” value (protein LMJF.23.1410 HY[…], CONSERVED) was 1.12. The “fold change relative to vehicle control” value (protein LMJF.24.0070, HY[…], CONSERVED) was 1.03, the fold change (protein LMJF.24.0140 ANKYRIN/TPR REPEAT PROTEIN) was 0.93 and the fold change (protein LMJF.24.0400 HYPOTHETICAL PROTEIN, CONSERVED (TPR repeat, putative)) was 0.96. The “fold change relative to vehicle control” value (protein LMJF.24.1510, IGE-DEPENDENT HISTAMINE-RELEASING FACTOR, PUTATIVE) was 0.85, the “fold change relative to vehicle control” value (protein LMJF.24.1630, SUCCINATE DEHYDROGENASE FLAVOPROTEIN, PUTATIVE) was 1 and the “fold change relative to vehicle control” value (protein LMJF.24.2060, TRANSKETOLASE) was 1.02. The “fold change relative to vehicle control” value (protein LMJF.25.0010, BETA […] TRANSFERASE) was 1.21, the “fold change relative to vehicle control” value (protein LMJF.25.0910, CYCLOPHILIN A) was 0.9 and the “fold change vs vehicle control” value (protein LMJF.25.1130 […] OXIDASE VII, PUTATIVE) was 1.09. The “fold change relative to vehicle control” value (protein LMJF.25.1180, ATPASE BETA SUBUNIT, PUTATIVE) was 1.06, the “fold change vs vehicle control” value (protein LMJF.25.1610 HY[…], CONSERVED) was 1.08 and the “fold change vs vehicle control” value (protein LMJF.25.1620 HYPOTHETICAL PROTEIN, CONSERVED) was 0.99. For the same compound, the fold change (protein LMJF.25.2340 SERINE/THREONINE-PROTEIN KINASE, PUTATIVE,PROTEIN KINASE, PUTATIVE) was 0.83, the “fold change relative to vehicle control” value (protein LMJF.26.0630, HY[…], CONSERVED) was 1.11 and the “fold change vs vehicle control” value (protein LMJF.26.1240 HEAT SHOCK PROTEIN 70-RELATED PROTEIN) was 1.06. The fold change (protein LMJF.26.1710 […] OXIDASE SUBUNIT V, PUTATIVE) was 1.03, the “fold change vs vehicle control” value (protein LMJF.26.2480 CDP-DIACYLGLYCEROL--INOSITOL 3-[…], PUTATIVE) was 1.06 and the “fold change vs vehicle control” value (protein LMJF.26.2560 HYPOTHETICAL PROTEIN, CONSERVED) was 0.94. For the same compound, the “fold change vs vehicle control” value (protein LMJF.27.0190 PROTEASOME ALPHA 7 SUBUNIT, PUTATIVE) was 0.97, the fold change (protein LMJF.27.0650 HY[…], CONSERVED) was 1.07 and the fold change (protein LMJF.27.0700 HYPOTHETICAL PROTEIN, CONSERVED) was 1.67. For the same compound, the “fold change vs vehicle control” value (protein LMJF.27.0760 GTP-binding protein homologue) was 0.78, the “fold change vs vehicle control” value (protein LMJF.27.1060 CYSTEINE DESULFURASE, PUTATIVE) was 0.93 and the “fold change vs vehicle control” value (protein LMJF.27.1110 MIT[…] BINDING PROTEIN 1,GBP21, MRP1) was 1.07. For the same compound, the fold change (protein LMJF.27.1250 HYPOTHETICAL PROTEIN, CONSERVED (Serine-threonine kinase receptor-associated protein, putative)) was 0.97, the “fold change relative to vehicle control” value (protein LMJF.27.1390, 60S ACIDIC RIBOSOMAL SUBUNIT PROTEIN, PUTATIVE) was 1.05 and the fold change (protein LMJF.27.1460 PROTEASOME REGULATORY NON-ATP-ASE SUBUNIT 3, PUTATIVE) was 0.87.
